Square brackets hold non-standard residues; d marks the D form. Ends that are not written are not given here. pS = N[C@@H](COP(=O)(O)O)C(=O)O

In this assay the test system is CD4+ T-cell response in PBMCs from 51 human donors. In words: EpiScreen time course T-cell proliferation and IL-2 ELISPOT assays (Example 6). As to conditions: 5 μM peptide, 51 donors; for donors responding, taking into account borderline responses and donors responding in only one of the two assays: SI≥1.90 borderline; for donors responding in both IL-2 ELISPOT and proliferation assays: SI≥2.00. The format is cell-based. The protocol: Two 16-mer peptides, Tau 393-408[pS396/pS404] (T3.5 having the amino acid sequence of SEQ ID NO:2) and Tau393-408 (T3.6 having the amino acid sequence of SEQ ID NO:4) were tested in EpiScreen™ time course T-cell assays for the capacity to induce CD4^+ T-cell response in 51 human donors.
EpiScreen™ Time Course T-cell Proliferation Assays and IL-2 ELISPOT Assays
PBMCs from 51 human donors were stimulated with either peptide at a final concentration of 5 μM. For each donor, a reproducibility control (cells incubated with 100 μg/mL KLH), a benchmark clinical control (cells incubated with 0.3 μM humanized A33) and a culture medium only well were also included. Proliferation and IL-2 production were evaluated after different time points.
For proliferation assays and IL-2 ELISPOT assays, an empirical threshold of a Stimulation Index (SI) equal to or greater than two (SI≥2.00) has been previously established whereby samples inducing responses above this threshold are deemed positive whereas SI≥1.90 were considered as borderline responders.
Previous EpiScreen™ time course T-cell assays with a range of biologics have shown a clear correlation between the percentage of donor T-cell responses in the EpiScreen™ assay and the level of immunogenicity observed in the clinic. In general, protein therapeutics that induce >10% positive responses in the EpiScreen™ assay are associated with a significant risk of immunogenicity in the clinic.

With “VYKSPVVSGDTSPRHL (tau peptide) [Tau 393-408, 16-mer non-phosphorylated Tau peptide]”, the “donors responding, taking into account borderline responses and donors responding in only one of the two assays” value is given as 8%; the “donors responding in both IL-2 ELISPOT and proliferation assays” value is recorded as 4%.
With “VYK[pS]PVVSGDT[pS]PRHL [Tau 393-408 [pS396/pS404]]”, the “donors responding, taking into account borderline responses and donors responding in only one of the two assays” value is on record as 8%; the “donors responding in both IL-2 ELISPOT and proliferation assays” value was determined as 2%.

The values above are taken from patent US12324855B2, “Method of safe administration of phosphorylated Tau peptide vaccine” (AC Immune SA, priority 2019, dated 2025).
